Measured values published in US8029764B2, “Methods for detection of colorectal cancer” (The Johns Hopkins University, priority 2001, dated 2011).

Test system: colorectal tissue transcripts
Experiment: SAGE of normal, adenoma and cancer colorectal tissue (transcript tag counts)
Set-up: species or system human
Settings: for AD1 (SAGE tag count): SAGE library AD1; for AD2 (SAGE tag count): SAGE library AD2; for CA1 (SAGE tag count): SAGE library CA1; for CA2 (SAGE tag count): SAGE library CA2; for NC1 (SAGE tag count): SAGE library NC1; for NC2 (SAGE tag count): SAGE library NC2
Text: In an effort to identify potential molecular markers of early colorectal tumors, we have here analyzed gene expression in benign and malignant colorectal tumors in an unbiased and comprehensive fashion. We used SAGE to analyze global gene expression in normal, benign and malignant colorectal tissue. SAGE is a gene expression profiling method that associates individual mRNA transcripts with 15-base tags derived from specific positions near their 3′ termini (3). The abundance of each tag provides a quantitative measure of the transcript level present within the mRNA population studied. SAGE is not dependent on pre-existing databases of expressed genes, and therefore provides an unbiased view of gene expression profiles. For the current study, SAGE libraries derived from two samples of normal colonic epithelium, two colorectal adenomas, and two colorectal cancers were analyzed.
SAGE. For the initial SAGE^3 of benign tumors, fresh adenomas were obtained from surgical specimens derived from FAP patients. Adenomas from FAP patients were employed because of the ready availability of small lesions and the certainty of inactivation of the APC pathway which initiates the formation of the majority of sporadic tumors. After histopathological verification of the neoplastic nature of the lesion (>70% neoplastic cells), total RNA was isolated by solubilizing the tissue in RNAgents Lysis Buffer (Promega, Madison, Wis.) followed by ultracentrifugation over a cesium chloride gradient. mRNA selection was performed from the purified total RNA using oligo(dT) cellulose (Life Technologies, Gaithersburg, Md.). […] Tags were extracted from the raw sequence data and, after excluding repeated ditags, linker sequences, and tags from the polyrnorphic Major Histocompatibility loci, the resulting tag libraries were compared and statistical analysis performed using SAGE software, version 4.0. Data from the libraries are publicly available at the Uniform Resource Locator (URL) address for the http file type found on the www host server that has a domain name of ncbi.nlm.nih.gov, and a path to the directory SAGE, and detailed SAGE protocols are available at the Uniform Resource Locator (URL) address for the http file type found on the www host server that has a domain name of sagenet.org, and file name of sage_protocol.htn.

Sequence | AD1 (SAGE tag count) | AD2 (SAGE tag count) | CA1 (SAGE tag count) | CA2 (SAGE tag count) | NC1 (SAGE tag count) | NC2 (SAGE tag count)
AAATCTGGCA (chemistry not fully specified) | 2 | 4 | 2 | 0 | 16 | 15
AACGTGCAGG (chemistry not fully specified) | 13 | 6 | 7 | 8 | 29 | 31
AAGAAAGCTC (chemistry not fully specified) | 0 | 2 | 1 | 5 | 20 | 6
AAGAAGCAGG (chemistry not fully specified; the letters are possibly those of the target site) | 3 | 4 | 1 | 3 | 8 | 16
AAGGTAGCAG (chemistry not fully specified) | 2 | 4 | 2 | 4 | 15 | 16
AATAAAGGCT (chemistry not fully specified) | 3 | 7 | 3 | 4 | 25 | 11
AATAGTTTCC (chemistry not fully specified) | 2 | 3 | 6 | 1 | 7 | 16
AATCACAAAT (chemistry not fully specified) | 1 | 4 | 14 | 3 | 18 | 45
AATGAGAAGG (chemistry not fully specified) | 0 | 0 | 1 | 0 | 11 | 3
ACAATTGGTC (chemistry not fully specified) | 0 | 0 | 0 | 0 | 0 | 10
ACACCCATCA (chemistry not fully specified) | 1 | 0 | 5 | 3 | 2 | 27
ACAGGGTGAC (chemistry not fully specified) | 1 | 8 | 7 | 6 | 25 | 13
ACATTGGGTG (chemistry not fully specified) | 67 | 34 | 96 | 33 | 377 | 334
ACCCAACTGC (chemistry not fully specified) | 0 | 0 | 0 | 0 | 12 | 3
ACCCACGTCA (chemistry not fully specified) | 3 | 5 | 3 | 1 | 22 | 10
ACCCCCCCGC (chemistry not fully specified) | 7 | 13 | 16 | 6 | 44 | 38
ACCTGCATCC (chemistry not fully specified) | 0 | 0 | 0 | 0 | 0 | 12
ACCTGGGGAG (chemistry not fully specified) | 1 | 3 | 4 | 3 | 35 | 11
ACGGTCCAGG (chemistry not fully specified) | 0 | 0 | 0 | 1 | 5 | 12
ACTCTTGTTG (chemistry not fully specified) | 0 | 0 | 0 | 0 | 7 | 2
ACTGTGGCGG (chemistry not fully specified) | 9 | 12 | 9 | 4 | 17 | 34
AGAATAGCTT (chemistry not fully specified) | 3 | 9 | 11 | 30 | 44 | 67
AGCAGGAGCA (chemistry not fully specified) | 6 | 3 | 7 | 6 | 50 | 14
AGCCCGACCA (chemistry not fully specified) | 2 | 4 | 1 | 3 | 16 | 8
AGGATGGTCC (chemistry not fully specified; the letters are possibly those of the target site) | 5 | 3 | 6 | 8 | 34 | 19
AGGCCAAGGG (chemistry not fully specified) | 3 | 1 | 3 | 4 | 21 | 6
